Source: patent US20250115597A1, “TYK2 INHIBITORS AND COMPOSITIONS AND METHODS THEREOF” (LYNK PHARMACEUTICALS CO. LTD., priority 2021, published 2025)
Where two headings read alike, the source gives them in different places.

Tests used:
[1] = molecular target: T1, Ba/F3-TEL-TYK2 cells (Homo sapiens, UniProt P29597); assay: Anti-proliferative assay, Ba/F3-TEL-TYK2 cells (Cell-Titer Glo); type: cell-based; details: 72 h, read-out: BaF3-TEL-TYK2 IC50
T1 construct: fused on or other part: Dimerization domain of TEL (ETV6) fused to the TYK2 kinase domain; P41212 (Transcription factor ETV6)
Method: (§1) Anti-Proliferative Assay Dimerization domain of Tel protein fused with JAK kinase domain was permanently transduced into Ba/F3 cells, whose proliferation is dependent on JAK activity in the absence of IL-3 induction. These engineered Ba/F3 cells (Ba/F3-FL-TYK2-[…], Ba/F3-TEL-TYK2 and Ba/F3-TEL-JAK2) were used to monitor JAK inhibitory activities of the compounds in the cellular. […] Cells were seeded at 2000/well of white flat bottom 96-well plates. The well containing medium only was used as background control. After 24 h growth, cells were treated with compounds. The test compounds were dissolved in DMSO to a stock concentration of 20 mM. 3-fold serially diluted compounds for 9 concentrations with top concentration of 20 μM was added into the each well. […] The cells continued to grow at 37° C. in 5% CO2 for 72 h after compound treatment. The viability was measured by cellular ATP determination using the Cell-Titer Glo luciferase reagent (Promega). The Luminescence value was recorded by a multi-label reader Envision (PerkinElmer).

[2] = molecular target: T2, Ba/F3-TEL-JAK2 cells (Homo sapiens, UniProt O60674); assay: Anti-proliferative assay, Ba/F3-TEL-JAK2 cells (Cell-Titer Glo); type: cell-based; details: 72 h, read-out: BaF3-TEL-JAK2 IC50
T2 construct: fused on or other part: Dimerization domain of TEL (ETV6) fused to the JAK2 kinase domain; P41212 (Transcription factor ETV6)
Method: as §1

[3] = molecular target: T3, Ba/F3-FL-TYK2-P760L cells (Homo sapiens, UniProt P29597, P760L, cells depend on it); assay: Anti-proliferative assay, Ba/F3-FL-TYK2-P760L cells (Cell-Titer Glo); type: cell-based; details: 72 h, read-out: BaF3-FL-T2P760L IC50
T3 construct: BaF3-FL-T2P760L (nM)
In short: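 Compound exposure ran 72 h at 37 °C in 5% CO2 across nine 3-fold concentrations from a 20 μM top dose, added 24 h after seeding 2000 cells/well.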

[4] = molecular target: T4, JAK2 (Homo sapiens, UniProt O60674); assay: JAK2 kinase activity, microfluidic assay (Caliper EZ Reader II); type: biochemical; details: JAK2 0.125 nM, 1 mM ATP
T4 construct: purchased Carna Biosciences
Method: (§2) Testing for JAK1, JAK2 and TYK2 Kinase Activities
(§3) JAK activity was determined in the reaction buffer 50 mM HEPES, 0.01% Brij35, 10 mM MgCl2, 2 mM DTT by a microfluidic assay. The phosphorylation of a FAM labeled peptide substrate was monitored in the Caliper EZ Reader II (Perkin Elmer). The assay condition for each batch of enzyme (Carna Biosciences) was optimized to obtain 10% conversion rate of peptide substrate.
(§4) The test compounds were dissolved in DMSO to a stock concentration of 10 mM. Three-fold serially diluted compounds with top concentration of 5 μM were pre-incubated with JAK1, JAK2 or TYK2 for 10 min at ambient temperature. The final DMSO concentration of assay mixture was 1%. […] The reaction was stopped by adding 50 mM EDTA.
(§5) The percent inhibition was calculated by the following formula:
(§6) [formula] • wherein • Conversion %_max=the conversion rate in the positive well without addition of compound • Conversion %_sample=the conversion rate of test compounds • Conversion %_min=the conversion rate in the well without addition of enzyme
(§7) The dose-response (percent inhibition) curve was plotted and IC50 values were determined by GraphPad software.

[5] = molecular target: T5, JAK1 (Homo sapiens, UniProt P23458); assay: JAK1 kinase activity, microfluidic assay (Caliper EZ Reader II); type: biochemical; details: JAK1 5 nM, 1 mM ATP
T5 construct: purchased Carna Biosciences
Method: as §2, §3, §4, §5, §6, §7

[6] = molecular target: T6, TYK2 (Homo sapiens, UniProt P29597); assay: TYK2 kinase activity, microfluidic assay (Caliper EZ Reader II); type: biochemical; details: TYK2 1 nM, 1 mM ATP
T6 construct: purchased Carna Biosciences
Method: as §2, §3, §4, §5, §6, §7

[7] = Microsomal metabolic stability assay; type: in vitro ADME; details: pH 7.4, 0.5 mg/mL protein, 1 μM compound
In short: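 Parent loss was tracked by LC/MS/MS at 0, 5, 15, 30 and 45 min, with half-life derived from the ln(% remaining)–time slope. Incubation at 37 °C, pH 7.4 phosphate/EDTA buffer: 0.5 mg/mL microsomes, 1 μM compound, NADPH-regenerated (2 mM).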

[8] = dog liver microsomes, read-out: Dog LM Clint
[9] = dog liver microsomes, read-out: Dog LM T½
[10] = human liver microsomes, read-out: Human LM Clint
[11] = human liver microsomes, read-out: Human LM T½
[12] = rat liver microsomes, read-out: Rat LM Clint
[13] = rat liver microsomes, read-out: Rat LM T½

T5 sequence (P23458 whole entry): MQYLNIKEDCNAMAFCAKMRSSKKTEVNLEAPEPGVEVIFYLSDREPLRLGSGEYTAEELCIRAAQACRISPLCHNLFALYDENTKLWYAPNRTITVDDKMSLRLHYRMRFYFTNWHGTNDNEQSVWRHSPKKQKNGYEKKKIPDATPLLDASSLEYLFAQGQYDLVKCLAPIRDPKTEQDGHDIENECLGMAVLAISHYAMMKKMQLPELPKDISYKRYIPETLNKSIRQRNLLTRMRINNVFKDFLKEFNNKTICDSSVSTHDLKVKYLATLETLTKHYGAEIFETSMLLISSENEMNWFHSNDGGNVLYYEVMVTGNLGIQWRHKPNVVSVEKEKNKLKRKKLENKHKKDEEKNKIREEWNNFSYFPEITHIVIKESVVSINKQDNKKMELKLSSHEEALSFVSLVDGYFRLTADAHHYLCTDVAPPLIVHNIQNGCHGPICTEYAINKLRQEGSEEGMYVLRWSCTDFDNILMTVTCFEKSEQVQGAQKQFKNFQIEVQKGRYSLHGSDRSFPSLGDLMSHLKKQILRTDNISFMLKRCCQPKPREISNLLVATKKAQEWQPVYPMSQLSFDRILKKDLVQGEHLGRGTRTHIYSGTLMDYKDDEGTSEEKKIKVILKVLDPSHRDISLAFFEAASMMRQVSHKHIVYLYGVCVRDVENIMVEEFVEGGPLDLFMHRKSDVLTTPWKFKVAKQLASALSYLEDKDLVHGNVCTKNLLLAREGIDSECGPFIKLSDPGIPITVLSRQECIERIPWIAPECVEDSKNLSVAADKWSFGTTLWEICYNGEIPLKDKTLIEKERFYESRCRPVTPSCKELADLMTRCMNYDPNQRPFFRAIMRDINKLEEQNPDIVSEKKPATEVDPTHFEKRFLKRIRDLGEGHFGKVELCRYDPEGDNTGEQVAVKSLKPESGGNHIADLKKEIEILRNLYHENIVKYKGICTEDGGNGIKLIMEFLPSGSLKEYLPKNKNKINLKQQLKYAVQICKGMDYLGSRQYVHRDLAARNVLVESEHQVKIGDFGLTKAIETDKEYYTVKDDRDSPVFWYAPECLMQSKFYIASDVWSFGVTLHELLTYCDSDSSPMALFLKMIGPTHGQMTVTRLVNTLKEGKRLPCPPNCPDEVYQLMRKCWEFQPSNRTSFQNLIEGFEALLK
T1 sequence (P29597 whole entry, change not shown, the tested form may be a part): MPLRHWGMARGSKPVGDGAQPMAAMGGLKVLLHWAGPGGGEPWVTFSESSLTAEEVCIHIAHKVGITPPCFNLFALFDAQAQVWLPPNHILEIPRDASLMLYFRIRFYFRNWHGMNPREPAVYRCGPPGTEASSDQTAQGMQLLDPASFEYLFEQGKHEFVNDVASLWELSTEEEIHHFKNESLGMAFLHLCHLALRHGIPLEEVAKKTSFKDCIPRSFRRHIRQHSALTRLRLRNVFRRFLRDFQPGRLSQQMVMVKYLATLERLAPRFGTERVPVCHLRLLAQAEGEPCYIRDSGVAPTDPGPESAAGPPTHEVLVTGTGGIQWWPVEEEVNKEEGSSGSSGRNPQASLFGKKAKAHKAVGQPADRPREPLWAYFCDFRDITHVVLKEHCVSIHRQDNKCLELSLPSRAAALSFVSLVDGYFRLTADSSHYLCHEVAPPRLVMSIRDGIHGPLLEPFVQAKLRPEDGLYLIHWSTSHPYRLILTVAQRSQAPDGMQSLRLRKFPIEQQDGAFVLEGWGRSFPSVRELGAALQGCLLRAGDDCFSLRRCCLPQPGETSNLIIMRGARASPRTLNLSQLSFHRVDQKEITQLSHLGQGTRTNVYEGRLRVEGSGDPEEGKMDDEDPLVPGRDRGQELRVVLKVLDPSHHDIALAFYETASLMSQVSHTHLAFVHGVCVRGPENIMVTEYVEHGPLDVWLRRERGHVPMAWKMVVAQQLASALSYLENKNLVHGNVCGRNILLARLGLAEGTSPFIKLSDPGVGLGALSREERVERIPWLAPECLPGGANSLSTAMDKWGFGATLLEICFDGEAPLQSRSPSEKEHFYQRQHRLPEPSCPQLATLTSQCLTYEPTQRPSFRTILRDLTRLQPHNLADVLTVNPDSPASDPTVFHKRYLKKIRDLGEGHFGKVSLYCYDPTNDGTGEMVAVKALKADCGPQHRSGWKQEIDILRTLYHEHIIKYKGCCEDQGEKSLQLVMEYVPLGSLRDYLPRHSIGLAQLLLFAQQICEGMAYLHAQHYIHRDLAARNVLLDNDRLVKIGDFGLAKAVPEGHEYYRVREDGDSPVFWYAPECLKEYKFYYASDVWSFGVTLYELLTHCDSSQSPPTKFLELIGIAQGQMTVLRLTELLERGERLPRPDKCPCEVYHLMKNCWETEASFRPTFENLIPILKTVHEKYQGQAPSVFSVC
T6 sequence (P29597 whole entry): as the sequence (P29597 whole entry, change not shown, the tested form may be a part) above
T4 sequence (O60674 whole entry): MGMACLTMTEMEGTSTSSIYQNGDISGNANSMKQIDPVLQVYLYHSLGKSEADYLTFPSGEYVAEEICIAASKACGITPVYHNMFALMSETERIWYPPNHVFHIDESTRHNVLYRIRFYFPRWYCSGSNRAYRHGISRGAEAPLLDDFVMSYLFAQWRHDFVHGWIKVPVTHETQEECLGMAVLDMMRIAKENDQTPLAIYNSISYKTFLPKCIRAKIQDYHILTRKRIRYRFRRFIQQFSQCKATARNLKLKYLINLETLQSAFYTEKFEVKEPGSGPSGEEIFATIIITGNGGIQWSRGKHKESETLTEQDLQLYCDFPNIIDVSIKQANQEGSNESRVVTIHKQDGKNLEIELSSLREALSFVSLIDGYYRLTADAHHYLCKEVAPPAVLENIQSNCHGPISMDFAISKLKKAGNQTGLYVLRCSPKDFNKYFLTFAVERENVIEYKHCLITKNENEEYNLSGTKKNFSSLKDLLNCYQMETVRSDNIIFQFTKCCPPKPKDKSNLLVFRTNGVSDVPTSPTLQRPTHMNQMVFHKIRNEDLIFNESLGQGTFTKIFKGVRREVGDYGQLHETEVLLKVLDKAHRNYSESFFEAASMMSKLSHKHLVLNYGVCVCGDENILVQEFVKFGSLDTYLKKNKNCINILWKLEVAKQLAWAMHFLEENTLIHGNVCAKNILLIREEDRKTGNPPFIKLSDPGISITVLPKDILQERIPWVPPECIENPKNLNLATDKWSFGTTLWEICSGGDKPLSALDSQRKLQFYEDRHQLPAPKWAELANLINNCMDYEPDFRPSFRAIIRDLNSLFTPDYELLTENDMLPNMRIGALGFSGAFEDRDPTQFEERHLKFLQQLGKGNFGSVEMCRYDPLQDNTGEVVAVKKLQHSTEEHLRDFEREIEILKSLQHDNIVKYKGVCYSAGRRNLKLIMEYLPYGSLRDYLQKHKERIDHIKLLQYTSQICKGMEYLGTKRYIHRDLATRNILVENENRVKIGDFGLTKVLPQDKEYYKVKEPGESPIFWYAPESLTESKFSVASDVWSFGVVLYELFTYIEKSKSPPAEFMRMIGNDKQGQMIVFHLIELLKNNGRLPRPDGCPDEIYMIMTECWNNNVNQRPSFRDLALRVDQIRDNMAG
T2 sequence (O60674 whole entry, change not shown, the tested form may be a part): as the sequence (O60674 whole entry) above
T3 sequence (P29597 whole entry P760L): as the sequence (P29597 whole entry, change not shown, the tested form may be a part) above, with P760L counted along it

| Compound | GI50 [1] | GI50 [2] | GI50 [3] | IC50 [4] | IC50 [5] | IC50 [6] | microsomal CLint at 1 μM [7, 8] | half-life at 1 μM [7, 9] | microsomal CLint at 1 μM [7, 10] | half-life at 1 μM [7, 11] | microsomal CLint at 1 μM [7, 12] | half-life at 1 μM [7, 13] |
| --- | --- | --- | --- | --- | --- | --- | --- | --- | --- | --- | --- | --- |
| CCC(=O)c1cnc(Nc2ccc(F)cc2)nc1Nc1cccc(-c2ncn(C)n2)c1OC [Example 8, 1-(2-((4-Fluorophenyl)amino)-4-((2-methoxy-3-(1-methyl-1H-1,2,4-triazol-3-yl)phenyl)amino)pyrimidin-5-yl)propan-1-one] | > 20 µM | 7.47 µM | 0.157 µM | – | – | – | – | – | – | – | – | – |
| CCn1ccc2c(c(Nc3cc(Nc4ccc(F)cn4)ncc3C(=O)NC)cn2C)c1=O [Example 10, 4-((5-Ethyl-1-methyl-4-oxo-4,5-dihydro-1H-pyrrolo[3,2-c]pyridin-3-yl)amino)-6-((5-fluoropyridin-2-yl)amino)-N-methylnicotinamide] | 4.03 µM | 3.73 µM | 0.0545 µM | > 5 µM | > 5 µM | > 5 µM | 27.1 µL/min/mg | 2.13 h | 88.3 µL/min/mg | 0.654 h | 137 µL/min/mg | 0.422 h |
| CNC(=O)c1cnc(NC(=O)C2CC2)cc1Nc1cn(C)c2c(F)cn(C)c(=O)c12 [Example 14, 6-(Cyclopropanecarboxamido)-4-((7-fluoro-1,5-dimethyl-4-oxo-4,5-dihydro-1H-pyrrolo[3,2-c]pyridin-3-yl)amino)-N-methylnicotinamide] | > 20 µM | > 20 µM | 0.33 µM | > 5 µM | > 5 µM | > 5 µM | 6.43 µL/min/mg | 3.59 h | 23.6 µL/min/mg | 0.98 h | 101 µL/min/mg | 0.228 h |
| CNC(=O)c1cnc(Nc2ccc(F)cn2)cc1Nc1csc2ccn(C)c(=O)c12 [Example 15, 6-((5-Fluoropyridin-2-yl)amino)-N-methyl-4-((5-methyl-4-oxo-4,5-dihydrothieno[3,2-c]pyridin-3-yl)amino)nicotinamide] | > 20 µM | > 20 µM | 0.0236 µM | – | – | – | – | – | – | – | – | – |
| CCn1ccc2scc(Nc3cc(Nc4ccc(F)cn4)ncc3C(=O)NC)c2c1=O [Example 18, 4-((5-Ethyl-4-oxo-4,5-dihydrothieno[3,2-c]pyridin-3-yl)amino)-6-((5-fluoropyridin-2-yl)amino)-N-methylnicotinamide] | > 20 µM | > 20 µM | 0.0484 µM | > 5 µM | > 5 µM | > 5 µM | – | – | – | – | – | – |
| [2H]C([2H])([2H])NC(=O)c1cnc(Nc2ccc(F)cc2)nc1Nc1cccc(-c2ncn(C)n2)c1OC [Example 20, 2-(4-Fluoroanilino)-4-[2-methoxy-3-(1-methyl-1,2,4-triazol-3-yl)anilino]-N-(trideuteriomethyl)pyrimidine-5-carboxamide] | 2.53 µM | 1.18 µM | 0.078 µM | 0.173 µM | > 5 µM | > 5 µM | 101 µL/min/mg | 0.572 h | 13.3 µL/min/mg | 4.36 h | 45.7 µL/min/mg | 1.26 h |
| [2H]C([2H])([2H])NC(=O)c1cnc(Nc2ccc(C#N)cc2)nc1Nc1cccc(-c2ncn(C)n2)c1OC [Example 28, 2-((4-Cyanophenyl)amino)-4-((2-methoxy-3-(1-methyl-1H-1,2,4-triazol-3-yl)phenyl)amino)-N-(methyl-d3) pyrimidine-5-carboxamide] | > 20 µM | > 20 µM | 0.065 µM | – | – | – | 4.77 µL/min/mg | 4.84 h | 2.46 µL/min/mg | 9.39 h | 14.3 µL/min/mg | 1.61 h |
| CNC(=O)c1cnc2cc1Nc1cc(cc(-c3ncn(C)n3)c1OC)COCc1cccc(n1)N2 [Example 34, 10-Methoxy-N-methyl-11-(1-methyl-1,2,4-triazol-3-yl)-15-oxa-2,4,8,21-tetrazatetracyclo[15.3.1.13,7.19,13]tricosa-1(21),3(23),4,6,9,11,13(22),17,19-nonaene-6-carboxamide] | 7.18 µM | 4.35 µM | 0.125 µM | – | – | – | – | – | – | – | – | – |
| CNC(=O)c1nnc2cc1Nc1cc(cc(-c3ncn(C)n3)c1OC)COCc1cccc(n1)N2 [Example 35, 10-Methoxy-N-methyl-11-(1-methyl-1H-1,2,4-triazol-3-yl)-15-oxa-2,4,5,8,21-pentaazatetracyclo[15.3.1.1^{3,7}.1^{9,13}]tricosa-1(21),3,5,7(23),9(22),10,12,17,19-nonaene-6-carboxamide] | > 20 µM | 0.789 µM | 0.0482 µM | > 5 µM | > 5 µM | > 5 µM | < 18.6 µL/min/mg | > 3.1 h | 21.2 µL/min/mg | 2.72 h | 63.8 µL/min/mg | 0.905 h |
| CNC(=O)c1cnc2nc1Nc1cc(cc(-c3ncn(C)n3)c1OC)COCc1cc(ccc1F)N2 [Example 36, 18-Fluoro-10-methoxy-N-methyl-11-(1-methyl-1H-1,2,4-triazol-3-yl)-15-oxa-2,4,8,23-tetraazatetracyclo[15.3.1.1^{3,7}.1^{9,13}]tricosa-1(20),3,5,7(23),9(22),10,12,17(21),18-nonaene-6-carboxamide] | 1.96 µM | 0.892 µM | 0.173 µM | – | – | – | – | – | – | – | – | – |
